{"source": "patent US20250326714A1", "about": "“PURE FORMS OF CRYSTALLINE ATICAPRANT” (Janssen Pharmaceuticals, Inc., priority 2022, published 2025)", "key": {"[1]": {"experiment": "ICH M7 class of impurity (DNA reactive / mutagenic impurities)"}, "[2]": {"experiment": "Solid-state characterization of Form III (GVS, TGA)", "type": "physicochemical"}, "[3]": {"experiment": "Body weight by treatment group, Example 5 study", "type": "in vivo, human", "excerpt": "Treatment with the chemically and/or enantiomerically pure aticaprant described herein, e.g., chemically and/or enantiomerically pure crystalline Form III of aticaprant, or compositions containing the same as described herein has several advantages over the treatments in the art. […] As used herein, the term “weight gain” refers to an increase in the weight of patient, relative to the weight of the patient before taking the chemically and/or enantiomerically pure aticaprant described herein, e.g., chemically and/or enantiomerically pure crystalline Form III of aticaprant, or compositions containing the same or the weight of the patient that is assessed at the time of the initial administration of the chemically and/or enantiomerically pure aticaprant described herein, e.g., chemically and/or enantiomerically pure crystalline Form III of aticaprant, or compositions containing the same. In certain embodiments, the patient may actually see a decrease in overall weight, relative to the weight of the patient before taking the chemically and/or enantiomerically pure aticaprant described herein, e.g., chemically and/or enantiomerically pure crystalline Form III of aticaprant, or compositions containing the same.\nAt the lead-in baseline timepoint, the mean weight for subjects in the placebo group was 76.17 kg compared to 78.66 in the aticaprant group. After 6 weeks in the double-blind treatment phase, the mean weight in the placebo group was 75.75 kg compared to 78.57 kg in the aticaprant group. […] This is unexpected because other adjunctive treatments for MDD result in a mean weight increase. See, Thase M, et al. J Clin Psych. 2015: 76 (9), 1224-1231; Thase, J Clin Psych. 2015, 76 (9): 1232-1240; El Khalili, Int J Neuropsychopharmacol. 2010, 13, 917-932; Marcus, J. Clin. Psychopharmacol. […] Nashville, Tenn, ACNP, 2008; Earley, American College of Neuropsychopharmacology, 2007, Annual Meeting Abstracts (Boca Raton, Fla, Dec. 9-13, 2007). Nashville, TN, ACNP, 2007). See, Table 48."}}}
{"smiles": "Cc1cc(C)cc([C@@H]2CCCN2Cc2ccc(Oc3ccc(CN4CCC[C@H]4c4cc(C)cc(C)c4)cc3)cc2)c1", "note": "[Impurity 1]", "values": [{"measurement": "Impurity Class (ICH M7 Guideline)", "setting": "[1]", "result": "Class 5"}]}
{"smiles": "Cc1cc(C)cc([C@@H]2CCCN2Cc2ccc(Oc3ccc(C(N)=O)cc3F)cc2)c1", "note": "[Form III]", "values": [{"measurement": "TGA degradation onset", "setting": "[2]", "result": "Degradation onset ~250 °C"}, {"measurement": "XRPD after GVS", "setting": "[2]", "result": "XRPD unchanged after GVS"}]}
{"smiles": "Cc1cc(C)cc(C2CCCN2Cc2ccc(Oc3ccc(C(N)=O)cc3F)cc2)c1", "note": "(stereo not drawn) [aticaprant, 3-fluoro-4-4-2-(3,5-dimethylphenyl) pyrrolidin-1-yl-methylphenoxybenzamide]", "values": [{"measurement": "weight over the 6-week double blind treatment period", "setting": "[3]; both groups", "result": "remained relatively stable"}, {"measurement": "Mean weight, Absolute Change (Withdrawal − Lead-in)", "setting": "[3]; n = 85", "result": -0.09, "unit": "kg"}, {"measurement": "Mean weight, Lead-in Baseline, mean (SE)", "setting": "[3]; n = 85", "result": "78.66 (1.65) kg"}, {"measurement": "Mean weight, Relative % Change", "setting": "[3]; n = 85", "result": "−0.11", "unit": "%"}, {"measurement": "Mean weight, Screening, mean (SE)", "setting": "[3]; n = 85", "result": "78.42 (1.65) kg"}, {"measurement": "Mean weight, Withdrawal Baseline, mean (SE)", "setting": "[3]; n = 85, after 6 weeks double-blind treatment", "result": "78.57 (1.71) kg"}]}
